Series [1] deals with human lymphoblastoid TK6 cells. Nature of the series: MultiFlow DNA Damage assay (γH2AX, p53, p-H3, polyploidy). It is filed as cell-based. Particulars: for MultiFlow summary classification (call and MoA): TK6 cells, 4H and 24H sampling; for MultiFlow MoA classification: GEF-based call, in at least one S9 condition; for MultiFlow biomarkers with responses: fold-increase over solvent control. As for the experimental part: Treated cells were gently resuspended and 25 µL/well was mixed thoroughly with the labeling solution. The plate was incubated for 30 min at room temperature shielded from light.
The γH2AX and p53 endpoints were measured based on their median fluorescence intensity (i.e., mean channel fluorescence or MCF) relative to the DMSO solvent control. The p-H3 and polyploidy endpoints were measured based on their frequencies among all events (i.e., all 2n–4n and polyploidy (8n) DNA content). The equations for calculating γH2AX shift, nuclear p53 shift, % polyploidy, and % p-H3 positive events are shown below.
Latex microspheres were used as counting beads to determine nuclear density.
Litron developed Global Evaluation Factors (GEF) to identify a biologically significant increase in select biomarker levels.
A clastogenic or aneugenic call required two successive concentrations that met or exceeded the GEFs in at least 2 of the 4 respective MoA biomarkers. Chemicals that met or exceeded two GEFs in a single non-cytotoxic concentration were designated as “weak” responses. In cases where both clastogen and aneugen biomarkers exceeded the GEF the MoA was considered pan-genotoxic. In cases where less than two biomarkers met the GEFs, the call was non-genotoxic.

Series [2] concerns human lymphoblastoid TK6 cells. Nature of the series: In vitro MicroFlow assay (flow cytometry-based micronucleus test). Particulars: for MicroFlow summary classification (MN induction): TK6 cells, 4H exposure, 24-h sampling; for MicroFlow %MN response (text): positive: >2.5 fold-increase in %MN and p < 0.05 vs vehicle. In general terms: Flow cytometry measures light scatter and fluorescence of single cells or particles in a stream.

Series [3] relates to human lymphoblastoid TK6 cells. The series can be described thus: Viability assessment (propidium iodide fluorescence, flow cytometry). Particulars: TK6 cells, ± S9, quantified at 24 h via propidium iodide.
The subject of series [4] is human lymphoblastoid TK6 cells. Nature of the series: TGx-DDI transcriptomic biomarker classification (TempO-Seq S1500+) and BMC modeling. Particulars: for TGx-DDI summary classification: TK6 cells, 4H exposure; for TGx-DDI classification: overall call from 2-DC, PCA, NSC-PA, S9 condition as in Figure 1; for TGx-DDI BMC potency ranking (bootstrapped median gene BMC): BMR 1 standard deviation, compounds with concordant positive calls; for Strength / consistency of TGx-DDI response (text): across concentrations and the three statistical analyses.

Series [5] relates to human lymphoblastoid TK6 cells. Nature of the series: Integrated NAM-based test strategy (TGx-DDI + MicroFlow + MultiFlow; ToxPi integration of BMCs). Particulars: for ToxPi profile of multiplexed endpoint BMCs: six endpoints: TGx-DDI, MN, 4H/24H p53, 4H/24H ɣH2AX; for Integrated hazard conclusion: from TGx-DDI, MicroFlow and MultiFlow calls.
The subject of series [6] is structural chromosomal aberrations. Particulars: cited from earlier work; for In vitro mammalian chromosomal aberration test result (OECD 473): SCCS.
The subject of another series is MN. Particulars: cited from earlier work.
Where [7] appears, read: +S9 (rat liver S9), 3 h recovery.

Consider ten compounds from paper PMC9899896, “Application of a new approach methodology (NAM)-based strategy for genotoxicity assessment of data-poor compounds” (Frontiers in Toxicology, 2023).

Like-named read-outs stand apart in the source and are kept apart here.

Consider `OC[C@@H](O)[C@@H](O)[C@H](O)[C@H](O)CO` [DMANN, D-mannitol, reference compound], for which the “MultiFlow summary classification (call and MoA)” value (from here on “MultiFlow summary classification”) in series [1] (+S9) and in series [1] (-S9) was “-” in each case. Further, in series [2] (-S9), the “MicroFlow summary classification (MN induction)” value (shortened to “MicroFlow summary classification”) was “-”. In addition, the “MicroFlow %MN response (text)” value in series [2] was “not observed”. Further, in series [3], the “Effect on cell viability” value is on record as “no decrease in viability”. Besides, the TGx-DDI summary classification result in series [4] (setting [7]) and in series [4] (-S9) was “-” in each case. In series [4], the “TGx-DDI classification” value was “non-DDI”.
`COc1cc([C@@H]2c3cc4c(cc3[C@@H](O[C@@H]3O[C@@H]5CO[C@@H](C)O[C@H]5[C@H](O)[C@H]3O)[C@H]3COC(=O)[C@H]23)OCO4)cc(OC)c1O` [EPEG, Etoposide, reference compound]: the “MultiFlow summary classification” value in series [1] (+S9) and in series [1] (-S9) was “+ C” each time. For the same compound, the “MicroFlow summary classification” value in series [2] (+S9) and in series [2] (-S9) was “+” in each case. Moreover, the “MicroFlow %MN response (text)” value in series [2] is on record as “significant fold-increases in %MN”. The TGx-DDI summary classification entry in series [4] (-S9) is “+”. Besides, in series [4], the “TGx-DDI BMC potency ranking (bootstrapped median gene BMC)” value is given as “lowest median gene BMC”. In addition, the “TGx-DDI classification” value in series [4] was “DDI”. Also, in series [5], the “ToxPi profile of multiplexed endpoint BMCs” value is given as “most potent for five of the six endpoints examined”.
As to `Cc1ccc(O)c(N)c1` [NSACB 2, 2-amino-4-methylphenol], in series [1], the “Strength of MultiFlow biomarker response (text)” value is “most robust increases”; the “MultiFlow MoA classification” value is “clastogens”; the “MultiFlow biomarkers with responses” value was 4H ɣH2AX and 24H p53. Moreover, in series [1] (+S9), the “MultiFlow summary classification” value is on record as “+ C”. For the same compound, in series [1] (-S9), the “MultiFlow summary classification” value is given as “-”. For the same compound, the “MicroFlow summary classification” value in series [2] (+S9) is “+”. The “MicroFlow summary classification” value in series [2] (-S9) was “+”. For the same compound, in series [2], the “MicroFlow %MN response (text)” value is recorded as “variable responses with a significant increase observed only at the highest concentration”. Further, the TGx-DDI summary classification entry in series [4] (setting [7]) is “+”. Moreover, in series [4], the “Strength / consistency of TGx-DDI response (text)” value (“Strength / consistency” below) is “weaker DDI responses” and the “TGx-DDI classification” value is recorded as “DDI”. In addition, the Integrated hazard conclusion entry in series [5] is “genotoxic in vitro, causing DNA damage via a clastogenic MoA”.
On to `Cc1cc(C)n(CO)n1` [NSACB 3, 3,5-dimethylpyrazole-1-methanol], for which, in series [1], the “Strength of MultiFlow biomarker response (text)” value is on record as “more moderate responses”; the “MultiFlow MoA classification” value is “clastogens”; the “MultiFlow biomarkers with responses” value is 4H p53 and 4H ɣH2AX. In series [1] (+S9), the “MultiFlow summary classification” value is “+ C”. Also, the “MultiFlow summary classification” value in series [1] (-S9) is “+ C”. Moreover, the “MicroFlow summary classification” value in series [2] (+S9) is “+”. In series [2] (-S9), the “MicroFlow summary classification” value is recorded as “+”. In series [2], the “MicroFlow %MN response (text)” value is “variable responses with a significant increase observed only at the highest concentration”. Also, the TGx-DDI summary classification result in series [4] (setting [7]) is on record as “+”. Moreover, in series [4], the “Strength / consistency” value is given as “weaker DDI responses” and the “TGx-DDI classification” value is listed as “DDI”. The Integrated hazard conclusion result in series [5] is on record as “genotoxic in vitro, causing DNA damage via a clastogenic MoA”.
For `CCN(CC)c1cccc(O)c1` [NSACB 4, 3-diethylaminophenol], the “MultiFlow summary classification” value in series [1] (+S9) is given as “+ C/A”. In addition, in series [1] (-S9), the “MultiFlow summary classification” value is reported as “+ C”. Further, in series [1], the “MultiFlow MoA classification” value is recorded as “pan-genotoxicant”; the “MultiFlow biomarkers with responses” value was “clastogen biomarkers 4H p53 and 4H ɣH2AX, as well as aneugen marker 4H p-H3 and pan-genotoxic biomarker 24H p53”. Besides, the TGx-DDI summary classification result in series [4] (setting [7]) is “+”. In addition, in series [4], the “Strength / consistency” value is “weaker DDI responses” and the “TGx-DDI classification” value is “DDI”. Further, in series [5], the Integrated hazard conclusion entry is “genotoxic in vitro, causing DNA damage via a clastogenic MoA”.
In the case of `Nc1cccc(N)n1` [NSACB 5, 2,6-diaminopyridine], the “MultiFlow summary classification” value in series [1] (+S9) and in series [1] (-S9) was “+ C” in each case. Moreover, the “MultiFlow MoA classification” value in series [1] was “clastogens”. Further, the “MultiFlow biomarkers with responses” value in series [1] is 4H p53 and 4H ɣH2AX. Besides, the “Strength of MultiFlow biomarker response (text)” value is on record as “most robust increases” in series [1] (listed as 5) and “strong response in clastogen-related biomarkers in both S9 conditions” in series [1] (listed as NSACB #5). For the same compound, the “Chromosomal aberration test result” value is reported as “clastogenic” in series [6] (continuous treatment (24H) without S9, ref SCCS, 2013) and “clastogenic” in series [6] (short-term (6H) treatment with S9, ref SCCS, 2013). For the same compound, the “In vitro mammalian chromosomal aberration test result (OECD 473)” value in series [6] (ref SCCP, 2007, 2013) is reported as “positive”. The “MicroFlow summary classification” value in series [2] (+S9) and in series [2] (-S9) was “+” throughout. In series [2], the “MicroFlow %MN response (text)” value is given as “robust fold-increase in %MN with a clear concentration-response relationship”. For the same compound, the TGx-DDI summary classification entry in series [4] (setting [7]) was “+”. In addition, the “TGx-DDI BMC potency ranking (bootstrapped median gene BMC)” value in series [4] is on record as “greatest median gene BMC”. Moreover, the “Strength / consistency” value in series [4] is “strongest responses”. Further, the “TGx-DDI classification” value in series [4] is recorded as “DDI across all concentrations”. Besides, in series [5], the Integrated hazard conclusion result is reported as “genotoxic in vitro, causing DNA damage via a clastogenic MoA”. Besides, in series [5], the “ToxPi profile of multiplexed endpoint BMCs” value is recorded as “almost no slices protruding from the center”.
As to `COc1cc([N+](=O)[O-])ccc1O` [NSACB 6, 2-methoxy-4-nitrophenol], the “MultiFlow summary classification” value in series [1] (+S9) and in series [1] (-S9) was “-” throughout. Further, the “MultiFlow MoA classification” value in series [1] is recorded as “non-genotoxic”. The “MultiFlow biomarkers with responses” value in series [1] is on record as “moderate to robust response increase in one of the aneugenic biomarkers (i.e., 4H p-H3)”. For the same compound, the “MicroFlow summary classification” value in series [2] (+S9) and in series [2] (-S9) was “+” each time. Besides, the “MicroFlow %MN response (text)” value in series [2] is “robust fold-increase in %MN with a clear concentration-response relationship”. The TGx-DDI summary classification result in series [4] (setting [7]) is “-”. Moreover, the “TGx-DDI classification” value in series [4] is “non-DDI”. Further, the Integrated hazard conclusion entry in series [5] was “likely irrelevant positives in the MN test”.
`O=[N+]([O-])c1cc(O)ccc1NCCCO` [NSACB 9, 4-[(3-hydroxypropyl)amino]-3-nitrophenol]: the “MultiFlow summary classification” value in series [1] (+S9) and in series [1] (-S9) was “+ C” throughout. The “MultiFlow MoA classification” value in series [1] is recorded as “clastogens”. Besides, the “MultiFlow biomarkers with responses” value in series [1] is 4H and 24H ɣH2AX. For the same compound, the “Strength of MultiFlow biomarker response (text)” value in series [1] (listed as 9) is “most robust increases”; in series [1] (listed as NSACB #9), “strong fold-increases in clastogenic biomarkers (i.e., 4H and 24H ɣH2AX) in both S9 conditions”. Also, the “Chromosomal aberration test result” value in series [6] (in the presence of S9, ref SCCP, 2007) is “induced structural chromosomal aberrations”; in series [6] (without S9, ref SCCP, 2007), “equivocal”. In series [6] (ref SCCP, 2007, 2013), the “In vitro mammalian chromosomal aberration test result (OECD 473)” value was “positive”. Moreover, the “MicroFlow summary classification” value in series [2] (+S9) and in series [2] (-S9) was “+” in each case. In addition, the “MicroFlow %MN response (text)” value in series [2] is recorded as “robust fold-increase in %MN with a clear concentration-response relationship”. The TGx-DDI summary classification entry in series [4] (setting [7]) and in series [4] (-S9) was “+” throughout. Further, the “Strength / consistency” value in series [4] is “moderate DDI response”. Moreover, the Integrated hazard conclusion entry in series [5] was “genotoxic in vitro, causing DNA damage via a clastogenic MoA”.
For the compound `CCCOCC(C)OCC(C)O` (stereo not drawn) [NSACB 10, 1-(1-methyl-2-propoxyethoxy)-2-propanol], in series [3], the “Effect on cell viability” value is listed as “did not impact viability up to the highest concentration of 10 mM”. Also, the Integrated hazard conclusion result in series [5] is “likely irrelevant positives in the MN test”.
With `C/C=C(/C)C(=O)O[C@H]1C(C)=C2[C@H]([C@@H]1OC(=O)CCCCCCC)[C@@](C)(OC(C)=O)C[C@H](OC(=O)CCC)[C@@]1(O)[C@H]2OC(=O)[C@@]1(C)O` [thapsigargin], in the series with MN, the “MicroFlow MN result” value is “induce MN”.
